Source: patent US8309558B2, “Compounds for the treatment of hepatitis C” (Bristol-Myers Squibb Company, priority 2008, dated 2012)

Assays:
[1] = target: T1, HCV NS5B RdRp genotype 1b (Hepatitis C virus genotype 1b, UniProt Q9WMX2); experiment: Standard HCV NS5B RdRp enzyme assay; assay type: biochemical; conditions: Table 1b; HCV NS5B RdRp genotype 1b; read-out: IC50
T1 construct: The protein was expressed with an 18 amino acid C-terminal truncation to enhance the solubility; made in house; host or cells: E. coli BL21(DE3), pET21a vector
T1 sequence (Q9WMX2 2420-2992): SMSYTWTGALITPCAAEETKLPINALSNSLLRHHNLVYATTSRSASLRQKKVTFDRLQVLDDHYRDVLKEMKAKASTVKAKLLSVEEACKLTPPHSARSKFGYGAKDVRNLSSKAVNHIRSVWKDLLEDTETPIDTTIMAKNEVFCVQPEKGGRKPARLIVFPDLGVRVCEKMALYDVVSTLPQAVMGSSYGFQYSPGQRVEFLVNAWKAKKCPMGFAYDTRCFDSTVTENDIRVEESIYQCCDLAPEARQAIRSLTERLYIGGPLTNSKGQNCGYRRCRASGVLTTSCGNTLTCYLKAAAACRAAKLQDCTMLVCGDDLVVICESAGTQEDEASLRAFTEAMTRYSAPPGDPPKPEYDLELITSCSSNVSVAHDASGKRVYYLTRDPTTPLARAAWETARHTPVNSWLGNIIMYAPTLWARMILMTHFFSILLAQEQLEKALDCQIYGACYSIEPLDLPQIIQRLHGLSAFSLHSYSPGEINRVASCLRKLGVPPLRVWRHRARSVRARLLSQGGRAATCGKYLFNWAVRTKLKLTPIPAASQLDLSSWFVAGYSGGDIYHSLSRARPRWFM
How it was run: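 Radiometric SPA measuring 3H-UMP incorporation on polyA/biotin-oligo-dT12 (6 nM/180 nM), 0.29 μM total UTP. Enzyme: NS5B 1b lacking last 18 residues, 28 nM final, 30° C for 60 min in 20 mM Hepes pH 7.5, 2.5 mM MgCl2, 2% DMSO. IC50 from seven-point curves.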

[2] = tested on: HCV replicon cells; experiment: HCV replicon FRET / luciferase assay (96-well plates); assay type: cell-based; conditions: Hepatitis C virus, Table 1b; HCV replicon; read-out: EC50
How it was run: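 Readout was NS3 protease cleavage of an EDANS/DABCYL FRET peptide (20 μM final) in lysed HCV replicon cells, or Renilla luciferase in reporter replicons. Background came from wells with the highest level of control protease inhibitor. EC50 marked the concentration giving 50% signal reduction.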

CNC(=O)c1c(-c2ccc(F)cc2)oc2ccc(-c3ccc(-c4cncc5ccccc45)c(C(=O)NCC(C)C)c3)cc12
IC50 [1]: 0.25 to 1 µM
EC50 [2]: < 0.25 µM

CNC(=O)c1c(-c2ccc(F)cc2)oc2ccc(-c3ccc(-c4cccnc4OC)c(C(=O)NCC(C)C)c3)cc12
IC50 [1]: < 0.25 µM
EC50 [2]: < 0.25 µM

CNC(=O)c1c(-c2ccc(F)cc2)oc2ccc(-c3ccc(-c4ccccc4OC)c(C(=O)NCC(C)C)c3)cc12
IC50 [1]: < 0.25 µM
EC50 [2]: < 0.25 µM

CNC(=O)c1c(-c2ccc(F)cc2)oc2ccc(-c3ccc(-c4cccc(/C=C/C(=O)O)c4)c(C(=O)NCC(C)C)c3)cc12
IC50 [1]: < 0.25 µM
EC50 [2]: 0.25 to 1 µM

CNC(=O)c1c(-c2ccccc2)oc2ccc(-c3cc(C(=O)NC4(c5nnc(-c6ccccc6)[nH]5)CC4)ccc3C)cc12
IC50 [1]: < 0.25 µM
EC50 [2]: < 0.25 µM

CNC(=O)c1c(-c2ccc(F)cc2)oc2ccc(-c3cc(C(=O)NC4(c5ccccn5)CC4)c(OC)cc3C)cc12
IC50 [1]: < 0.25 µM
EC50 [2]: < 0.25 µM

CNC(=O)c1c(-c2ccc(F)cc2)oc2ccc(-c3cc(C(=O)NC4(c5ccccn5)CC4)c(F)cc3Cl)cc12
IC50 [1]: < 0.25 µM
EC50 [2]: < 0.25 µM

CNC(=O)c1c(-c2ccc(F)cc2)oc2ccc(-c3cncc(C(=O)NC(C)(C)C)c3)cc12
IC50 [1]: < 0.25 µM
EC50 [2]: < 0.25 µM

CNC(=O)c1c(-c2ccc(F)cc2)oc2ccc(-c3cc(OC(C)C)cc(C(=O)NCC(C)C)c3)cc12
IC50 [1]: 1 to 10 µM
EC50 [2]: > 10 µM

CNC(=O)c1c(-c2ccc(F)cc2)oc2ccc(-c3cc(C(=O)NCC(C)C)ccc3OC(F)(F)F)cc12
IC50 [1]: 0.25 to 1 µM
EC50 [2]: > 10 µM

CNC(=O)c1c(-c2ccc(F)cc2)oc2ccc(-c3cc(C(=O)NC4(c5ccccn5)CC4)c(F)cc3O)cc12
IC50 [1]: < 0.25 µM
EC50 [2]: 0.25 to 1 µM

CNC(=O)c1c(-c2ccccc2)oc2ccc(-c3cc(C(=O)NC4(c5nc(-c6ccccn6)no5)CC4)ccc3C)cc12
IC50 [1]: < 0.25 µM
EC50 [2]: < 0.25 µM

CNC(=O)c1c(-c2ccc(F)cc2)oc2ccc(-c3cc(C(=O)NC4(c5ccccc5)CC4)ccc3OC(F)(F)F)cc12
IC50 [1]: 0.25 to 1 µM
EC50 [2]: < 0.25 µM

CNC(=O)c1c(-c2ccc(F)cc2)oc2ccc(-c3cc(C(=O)NC4(c5ccccn5)CC4)ccc3OC(F)(F)F)cc12
IC50 [1]: 0.25 to 1 µM
EC50 [2]: < 0.25 µM

CNC(=O)c1c(-c2ccc(F)cc2)oc2ccc(-c3cc(C(=O)NC4(c5nc(C)no5)CC4)c(OC)cc3Cl)cc12
IC50 [1]: < 0.25 µM
EC50 [2]: < 0.25 µM

CNC(=O)c1c(-c2ccc(F)cc2)oc2ccc(-c3cc(C(=O)NC4(c5ccccn5)CC4)c(F)cc3C)cc12
IC50 [1]: < 0.25 µM
EC50 [2]: < 0.25 µM

CNC(=O)c1c(-c2ccc(F)cc2)oc2ccc(-c3cc(C(=O)NC4(c5nc(C6CC6)no5)CC4)ccc3C)cc12
IC50 [1]: < 0.25 µM
EC50 [2]: < 0.25 µM

CNC(=O)c1c(-c2ccc(F)cc2)oc2ccc(-c3ccc(-c4cccc(OC)c4F)c(C(=O)NCC(C)C)c3)cc12
IC50 [1]: > 10 µM
EC50 [2]: 0.25 to 1 µM

CNC(=O)c1c(-c2ccc(F)cc2)oc2ccc(-c3ccc(-c4cc(F)cc(F)c4)c(C(=O)NCC(C)C)c3)cc12
IC50 [1]: 0.25 to 1 µM
EC50 [2]: < 0.25 µM

C#CCNC(=O)C1(NC(=O)c2ccc(C)c(-c3ccc4oc(-c5ccc(F)cc5)c(C(=O)NC)c4c3)c2)CC1
IC50 [1]: < 0.25 µM
EC50 [2]: < 0.25 µM

CNC(=O)c1c(-c2ccc(C)cc2)oc2ccc(-c3cc(C(=O)NC4(c5nc(COC)no5)CC4)ccc3C)cc12
IC50 [1]: < 0.25 µM
EC50 [2]: < 0.25 µM

CNC(=O)c1c(-c2ccc(F)cc2)oc2ccc(-c3cc(OCCN(C)C)cc(C(=O)NCC(C)C)c3)cc12
IC50 [1]: 0.25 to 1 µM
EC50 [2]: 0.25 to 1 µM

CNC(=O)c1c(-c2ccc(F)cc2)oc2ccc(-c3cc(OCCc4cccnc4)cc(C(=O)NCC(C)C)c3)cc12
IC50 [1]: > 10 µM
EC50 [2]: 1 to 10 µM

CNC(=O)c1c(-c2ccc(F)cc2)oc2ccc(-c3cc(C(=O)NC4(c5nnc(N)o5)CC4)ccc3C)cc12
IC50 [1]: < 0.25 µM
EC50 [2]: < 0.25 µM

CNC(=O)c1c(-c2ccc(F)cc2)oc2ccc(-c3cc(C(=O)NC4(c5noc(C)n5)CC4)ccc3C)cc12
IC50 [1]: < 0.02 µM
EC50 [2]: < 0.25 µM

CNC(=O)c1c(-c2ccc(F)cc2)oc2ccc(-c3ccc(-c4cccnc4C)c(C(=O)NCC(C)C)c3)cc12
IC50 [1]: < 0.25 µM
EC50 [2]: < 0.25 µM

CNC(=O)c1c(-c2ccc(F)cc2)oc2ccc(-c3ccc(-c4cncc(N)c4)c(C(=O)NCC(C)C)c3)cc12
IC50 [1]: < 0.25 µM
EC50 [2]: 0.25 to 1 µM

CNC(=O)c1c(-c2ccc(F)cc2)oc2ccc(-c3ccc(-c4ccnc(N)c4)c(C(=O)NCC(C)C)c3)cc12
IC50 [1]: < 0.02 µM
EC50 [2]: < 0.25 µM

CNC(=O)c1c(-c2ccc(F)cc2)oc2ccc(-c3cc(C(=O)NC4(c5ccccn5)CC4)c(O)cc3Cl)cc12
IC50 [1]: < 0.25 µM
EC50 [2]: 0.25 to 1 µM

CNC(=O)c1c(-c2ccc(F)cc2)oc2ccc(-c3cc(C(=O)NC4(c5cccnc5)CC4)ccc3C)cc12
IC50 [1]: < 0.02 µM
EC50 [2]: < 0.25 µM

CNC(=O)c1c(-c2ccc(F)cc2)oc2ccc(-c3cc(O)cc(C(=O)NCC(C)C)c3)cc12
IC50 [1]: < 0.25 µM
EC50 [2]: 0.25 to 1 µM

CNC(=O)c1c(-c2ccc(F)cc2)oc2ccc(-c3cc(OCCCCN)cc(C(=O)NCC(C)C)c3)cc12
IC50 [1]: < 0.25 µM
EC50 [2]: 1 to 10 µM

CNC(=O)c1c(-c2ccc(F)cc2)oc2ccc(-c3cc(OCCC4CCCNC4)cc(C(=O)NCC(C)C)c3)cc12 (stereo not shown)
IC50 [1]: < 0.25 µM
EC50 [2]: < 0.25 µM

CNC(=O)c1c(-c2ccc(F)cc2)oc2ccc(-c3cc(OCCn4ccnc4)cc(C(=O)NCC(C)C)c3)cc12
IC50 [1]: 1 to 10 µM
EC50 [2]: 1 to 10 µM

CNC(=O)c1c(-c2ccc(F)cc2)oc2ccc(-c3cc(OCCc4ccncc4)cc(C(=O)NCC(C)C)c3)cc12
IC50 [1]: < 0.25 µM
EC50 [2]: > 0.5 µM

C#CCOc1cc(C(=O)NCC(C)C)cc(-c2ccc3oc(-c4ccc(F)cc4)c(C(=O)NC)c3c2)c1
IC50 [1]: 1 to 10 µM
EC50 [2]: 1 to 10 µM

CNC(=O)c1c(-c2ccc(F)cc2)oc2ccc(-c3cc(OCC4CC4)cc(C(=O)NCC(C)C)c3)cc12
IC50 [1]: > 10 µM
EC50 [2]: 0.25 to 1 µM

CNC(=O)c1c(-c2ccc(F)cc2)oc2ccc(-c3cc(OCc4cccnc4)cc(C(=O)NCC(C)C)c3)cc12
IC50 [1]: 1 to 10 µM
EC50 [2]: 1 to 10 µM

CNC(=O)c1c(-c2ccc(F)cc2)oc2ccc(-c3cc(OCc4ccoc4)cc(C(=O)NCC(C)C)c3)cc12
IC50 [1]: 1 to 10 µM
EC50 [2]: 1 to 10 µM

CNC(=O)c1c(-c2ccc(F)cc2)oc2ccc(-c3cc(OCCC4CCNCC4)cc(C(=O)NCC(C)C)c3)cc12
IC50 [1]: < 0.25 µM
EC50 [2]: 1 to 10 µM

CCCOc1cc(C(=O)NCC(C)C)cc(-c2ccc3oc(-c4ccc(F)cc4)c(C(=O)NC)c3c2)c1
IC50 [1]: > 10 µM
EC50 [2]: 1 to 10 µM

CCOc1cc(C(=O)NCC(C)C)cc(-c2ccc3oc(-c4ccc(F)cc4)c(C(=O)NC)c3c2)c1
IC50 [1]: > 0.5 µM
EC50 [2]: 1 to 10 µM

CNC(=O)c1c(-c2ccc(F)cc2)oc2ccc(-c3cc(OCCOC)cc(C(=O)NCC(C)C)c3)cc12
IC50 [1]: > 0.5 µM
EC50 [2]: 1 to 10 µM

CNC(=O)c1c(-c2ccc(F)cc2)oc2ccc(-c3cc(OCCn4ccnc4C)cc(C(=O)NCC(C)C)c3)cc12
IC50 [1]: 1 to 10 µM
EC50 [2]: 1 to 10 µM

CNC(=O)c1c(-c2ccc(F)cc2)oc2ccc(-c3cc(OC[C@@H]4CCCN4)cc(C(=O)NCC(C)C)c3)cc12
IC50 [1]: 1 to 10 µM
EC50 [2]: 1 to 10 µM

CNC(=O)c1c(-c2ccc(F)cc2)oc2ccc(-c3cc(OCc4cc(C)on4)cc(C(=O)NCC(C)C)c3)cc12
IC50 [1]: > 1.39 µM
EC50 [2]: 1 to 10 µM

CNC(=O)c1c(-c2ccc(F)cc2)oc2ccc(-c3cc(OCc4ccco4)cc(C(=O)NCC(C)C)c3)cc12
IC50 [1]: 1 to 10 µM
EC50 [2]: 1 to 10 µM
